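Cells were grown in 96-well plates and exposed to each compound for 48 hours at five concentrations; endpoints were interpolated linearly between bracketing concentrations, or set to the highest concentration if not reached. At the GI50, growth is halved. Definition used: TGI = concentration required for complete inhibition of growth.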
Experiments:
Test in all cases: NCI-60 cell line screen, 48 h
MDA-MB-435 = system: MDA-MB-435
T-47D breast = system: T-47D breast
HOP-62 NSCLC = system: HOP-62 NSCLC
UO-31 renal = system: UO-31 renal
SF-268 CNS = system: SF-268 CNS
HS 578T breast = system: HS 578T breast
UACC-257 melanoma = system: UACC-257 melanoma
786-0 renal = system: 786-0 renal
SNB-75 CNS = system: SNB-75 CNS
M14 melanoma = system: M14 melanoma
HCC-2998 colon = system: HCC-2998 colon
KM12 colon = system: KM12 colon
MOLT-4 leukemia = system: MOLT-4 leukemia
SF-539 CNS = system: SF-539 CNS
UACC-62 melanoma = system: UACC-62 melanoma
BT-549 breast = system: BT-549 breast
CAKI-1 renal = system: CAKI-1 renal
OVCAR-5 ovarian = system: OVCAR-5 ovarian
COLO 205 colon = system: COLO 205 colon
U251 CNS = system: U251 CNS
NCI-H460 lung = system: NCI-H460 lung
SK-OV-3 ovarian = system: SK-OV-3 ovarian
NCI-H23 lung = system: NCI-H23 lung
MDA-MB-231 breast = system: MDA-MB-231 breast
MCF7 breast = system: MCF7 breast
A549 NSCLC = system: A549 NSCLC
OVCAR-3 ovarian = system: OVCAR-3 ovarian
SK-MEL-28 melanoma = system: SK-MEL-28 melanoma
NCI-H226 lung = system: NCI-H226 lung
SR leukemia = system: SR leukemia
SK-MEL-2 melanoma = system: SK-MEL-2 melanoma
SF-295 CNS = system: SF-295 CNS
SW-620 colon = system: SW-620 colon
HCT-15 colon = system: HCT-15 colon
HL-60(TB) leukemia = system: HL-60(TB) leukemia
NCI-H522 lung = system: NCI-H522 lung
EKVX NSCLC = system: EKVX NSCLC
HCT-116 colon = system: HCT-116 colon
LOX IMVI melanoma = system: LOX IMVI melanoma
OVCAR-8 ovarian = system: OVCAR-8 ovarian
IGROV1 ovarian = system: IGROV1 ovarian
RPMI-8226 leukemia = system: RPMI-8226 leukemia
ACHN renal = system: ACHN renal
OVCAR-4 ovarian = system: OVCAR-4 ovarian
PC-3 prostate = system: PC-3 prostate
SNB-19 CNS = system: SNB-19 CNS
MALME-3M melanoma = system: MALME-3M melanoma
SN12C renal = system: SN12C renal
TK-10 renal = system: TK-10 renal
RXF 393 renal = system: RXF 393 renal
A498 renal = system: A498 renal
DU-145 prostate = system: DU-145 prostate
CCRF-CEM leukemia = system: CCRF-CEM leukemia
K-562 leukemia = system: K-562 leukemia
SK-MEL-5 melanoma = system: SK-MEL-5 melanoma
NCI/ADR-RES ovarian = system: NCI/ADR-RES ovarian
HT29 colon = system: HT29 colon
HOP-92 NSCLC = system: HOP-92 NSCLC

Cc1nn(CCO)c(C)c1N=[N+]([O-])c1c(C)nn(CCO)c1C
GI50 (MDA-MB-435): 1.59 µM | TGI (MDA-MB-435): 3.53 µM | GI50 (T-47D breast): 1.7 µM | TGI (T-47D breast): 4.51 µM | GI50 (HOP-62 NSCLC): 20.4 µM | TGI (HOP-62 NSCLC): > 57.9 µM | GI50 (UO-31 renal): 0.754 µM | TGI (UO-31 renal): 2.15 µM | GI50 (SF-268 CNS): 15.6 µM | TGI (SF-268 CNS): 31.2 µM | GI50 (HS 578T breast): 17.6 µM | TGI (HS 578T breast): 53.1 µM | GI50 (UACC-257 melanoma): 1.69 µM | TGI (UACC-257 melanoma): 3.5 µM | GI50 (786-0 renal): 10.1 µM | TGI (786-0 renal): 41.5 µM | GI50 (SNB-75 CNS): 13.1 µM | TGI (SNB-75 CNS): 25.9 µM | GI50 (M14 melanoma): 1.88 µM | TGI (M14 melanoma): > 19.7 µM | GI50 (HCC-2998 colon): 13.7 µM | TGI (HCC-2998 colon): 27.2 µM | GI50 (KM12 colon): 12.6 µM | TGI (KM12 colon): 26 µM | GI50 (MOLT-4 leukemia): 8.47 µM | TGI (MOLT-4 leukemia): 33.3 µM | GI50 (SF-539 CNS): 2.13 µM | TGI (SF-539 CNS): 5.51 µM | GI50 (UACC-62 melanoma): 8.48 µM | TGI (UACC-62 melanoma): 22.2 µM | GI50 (BT-549 breast): 2.13 µM | TGI (BT-549 breast): 6.48 µM | GI50 (CAKI-1 renal): 1.51 µM | TGI (CAKI-1 renal): 3.33 µM | GI50 (OVCAR-5 ovarian): 11.3 µM | TGI (OVCAR-5 ovarian): 24.2 µM | GI50 (COLO 205 colon): 0.296 µM | TGI (COLO 205 colon): 0.802 µM | GI50 (U251 CNS): 7.42 µM | TGI (U251 CNS): 20.6 µM | GI50 (NCI-H460 lung): 17.8 µM | TGI (NCI-H460 lung): 37.8 µM | GI50 (SK-OV-3 ovarian): 16.3 µM | TGI (SK-OV-3 ovarian): 30.5 µM | GI50 (NCI-H23 lung): 4.95 µM | TGI (NCI-H23 lung): 10.6 µM | GI50 (MDA-MB-231 breast): 13.5 µM | TGI (MDA-MB-231 breast): 28.8 µM | GI50 (MCF7 breast): 2.64 µM | TGI (MCF7 breast): 8.36 µM | GI50 (A549 NSCLC): 14.8 µM | TGI (A549 NSCLC): 36.2 µM | GI50 (OVCAR-3 ovarian): 1.92 µM | TGI (OVCAR-3 ovarian): 3.65 µM | GI50 (SK-MEL-28 melanoma): 2.84 µM | TGI (SK-MEL-28 melanoma): 7.19 µM | GI50 (NCI-H226 lung): 16.1 µM | TGI (NCI-H226 lung): 37 µM | GI50 (SR leukemia): 1.8 µM | TGI (SR leukemia): 6.86 µM | GI50 (SK-MEL-2 melanoma): 5.79 µM | TGI (SK-MEL-2 melanoma): 40.9 µM | GI50 (SF-295 CNS): 15.3 µM | TGI (SF-295 CNS): 30 µM | GI50 (SW-620 colon): 1.45 µM | TGI (SW-620 colon): 3.09 µM | GI50 (HCT-15 colon): 2.4 µM | TGI (HCT-15 colon): 6.5 µM | GI50 (HL-60(TB) leukemia): 2.5 µM | TGI (HL-60(TB) leukemia): 9.3 µM | GI50 (NCI-H522 lung): 1.03 µM | TGI (NCI-H522 lung): 2.88 µM | GI50 (EKVX NSCLC): 5.62 µM | TGI (EKVX NSCLC): 20.6 µM | GI50 (HCT-116 colon): 2.12 µM | GI50 (LOX IMVI melanoma): 3 µM | TGI (LOX IMVI melanoma): 7.69 µM | GI50 (OVCAR-8 ovarian): 2.19 µM | TGI (OVCAR-8 ovarian): 4.54 µM | GI50 (IGROV1 ovarian): 4.8 µM | TGI (IGROV1 ovarian): 21.8 µM | GI50 (RPMI-8226 leukemia): 3.64 µM | TGI (RPMI-8226 leukemia): 14.8 µM | GI50 (ACHN renal): 1.36 µM | TGI (ACHN renal): 2.91 µM | GI50 (OVCAR-4 ovarian): 5.88 µM | TGI (OVCAR-4 ovarian): 15.8 µM | GI50 (PC-3 prostate): 4.99 µM | TGI (PC-3 prostate): 20.9 µM | GI50 (SNB-19 CNS): 16.6 µM | TGI (SNB-19 CNS): 32.1 µM | GI50 (MALME-3M melanoma): 0.723 µM | TGI (MALME-3M melanoma): 2.4 µM | GI50 (SN12C renal): 6.3 µM | TGI (SN12C renal): 23 µM | GI50 (TK-10 renal): 1.64 µM | TGI (TK-10 renal): 3.43 µM | GI50 (RXF 393 renal): 1.74 µM | TGI (RXF 393 renal): 3.73 µM | GI50 (A498 renal): 15.9 µM | TGI (A498 renal): 29.8 µM | GI50 (DU-145 prostate): 2.92 µM | TGI (DU-145 prostate): 7.88 µM | GI50 (CCRF-CEM leukemia): 3.53 µM | TGI (CCRF-CEM leukemia): 33.5 µM | GI50 (K-562 leukemia): 2.19 µM | TGI (K-562 leukemia): 7.13 µM | GI50 (SK-MEL-5 melanoma): 11 µM | TGI (SK-MEL-5 melanoma): 23.3 µM | GI50 (NCI/ADR-RES ovarian): 11.8 µM | TGI (NCI/ADR-RES ovarian): 39 µM | GI50 (HT29 colon): 3.59 µM | TGI (HT29 colon): 13.7 µM | GI50 (HOP-92 NSCLC): 1.83 µM | TGI (HOP-92 NSCLC): 7.19 µM

— PubChem BioAssay (NCI)
